According to PubChem BioAssay (NCI):
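These data come from cells grown in 96-well plates and exposed to compound for 48 hours at five concentrations. At the GI50, growth is halved. TGI: concentration producing complete growth inhibition.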

Legend:
Assay in all cases: NCI anticancer screen, dose series, 48 h
OVCAR-3 ovarian = test system: OVCAR-3 ovarian
NCI-H460 lung = test system: NCI-H460 lung
SF-295 CNS = test system: SF-295 CNS
786-0 renal = test system: 786-0 renal
NCI-H23 lung = test system: NCI-H23 lung
SK-OV-3 ovarian = test system: SK-OV-3 ovarian
SF-539 CNS = test system: SF-539 CNS
UO-31 renal = test system: UO-31 renal
OVCAR-4 ovarian = test system: OVCAR-4 ovarian
HOP-92 NSCLC = test system: HOP-92 NSCLC
COLO 205 colon = test system: COLO 205 colon
HS 578T breast = test system: HS 578T breast
OVCAR-5 ovarian = test system: OVCAR-5 ovarian
SNB-75 CNS = test system: SNB-75 CNS
CAKI-1 renal = test system: CAKI-1 renal
SK-MEL-2 melanoma = test system: SK-MEL-2 melanoma
T-47D breast = test system: T-47D breast
NCI-H226 lung = test system: NCI-H226 lung
M14 melanoma = test system: M14 melanoma
SNB-19 CNS = test system: SNB-19 CNS
ACHN renal = test system: ACHN renal
SN12C renal = test system: SN12C renal
SR leukemia = test system: SR leukemia
SK-MEL-5 melanoma = test system: SK-MEL-5 melanoma
TK-10 renal = test system: TK-10 renal
A498 renal = test system: A498 renal
NCI-H522 lung = test system: NCI-H522 lung
MCF7 breast = test system: MCF7 breast
MALME-3M melanoma = test system: MALME-3M melanoma
LOX IMVI melanoma = test system: LOX IMVI melanoma
HCT-116 colon = test system: HCT-116 colon
MDA-MB-435 = test system: MDA-MB-435
HCC-2998 colon = test system: HCC-2998 colon
K-562 leukemia = test system: K-562 leukemia
MOLT-4 leukemia = test system: MOLT-4 leukemia
BT-549 breast = test system: BT-549 breast
HOP-62 NSCLC = test system: HOP-62 NSCLC
U251 CNS = test system: U251 CNS
SK-MEL-28 melanoma = test system: SK-MEL-28 melanoma
SF-268 CNS = test system: SF-268 CNS
SW-620 colon = test system: SW-620 colon
HCT-15 colon = test system: HCT-15 colon
UACC-62 melanoma = test system: UACC-62 melanoma
NCI/ADR-RES ovarian = test system: NCI/ADR-RES ovarian
DU-145 prostate = test system: DU-145 prostate
KM12 colon = test system: KM12 colon
OVCAR-8 ovarian = test system: OVCAR-8 ovarian
HL-60(TB) leukemia = test system: HL-60(TB) leukemia
MDA-MB-231 breast = test system: MDA-MB-231 breast
IGROV1 ovarian = test system: IGROV1 ovarian
HT29 colon = test system: HT29 colon
EKVX NSCLC = test system: EKVX NSCLC
UACC-257 melanoma = test system: UACC-257 melanoma
PC-3 prostate = test system: PC-3 prostate
CCRF-CEM leukemia = test system: CCRF-CEM leukemia
RXF 393 renal = test system: RXF 393 renal
RPMI-8226 leukemia = test system: RPMI-8226 leukemia
A549 NSCLC = test system: A549 NSCLC

With `C=C(C)[C@@H]1C/C=C(\COC(=O)[C@H](OC(C)=O)C(NC(=O)c2ccccc2)c2ccccc2)CC[C@H]2O[C@]2(C)CC/C=C(\C)CC1` (stereo not given in full) the GI50 (OVCAR-3 ovarian) was 12.2 µM, the TGI (OVCAR-3 ovarian) was 44.5 µM and the GI50 (NCI-H460 lung) was 15.5 µM. The TGI (NCI-H460 lung) was > 50 µM, the GI50 (SF-295 CNS) was 13.2 µM and the TGI (SF-295 CNS) was > 50 µM. The GI50 (786-0 renal) was 18.5 µM, the TGI (786-0 renal) was > 50 µM and the GI50 (NCI-H23 lung) was 19.3 µM. For the same molecule, the TGI (NCI-H23 lung) was > 50 µM, the GI50 (SK-OV-3 ovarian) was > 50 µM and the TGI (SK-OV-3 ovarian) was > 50 µM. The GI50 (SF-539 CNS) was 11.2 µM, the TGI (SF-539 CNS) was 27.1 µM and the GI50 (UO-31 renal) was 20.6 µM. For the same molecule, the TGI (UO-31 renal) was > 50 µM, the GI50 (OVCAR-4 ovarian) was 15.4 µM and the TGI (OVCAR-4 ovarian) was > 50 µM. For the same molecule, the GI50 (HOP-92 NSCLC) was 31.8 µM, the TGI (HOP-92 NSCLC) was > 50 µM and the GI50 (COLO 205 colon) was 11.2 µM. It also gave a TGI (COLO 205 colon) of 25.8 µM, a GI50 (HS 578T breast) of 15.2 µM and a TGI (HS 578T breast) of 49.4 µM. The GI50 (OVCAR-5 ovarian) was 32.1 µM, the TGI (OVCAR-5 ovarian) was > 50 µM and the GI50 (SNB-75 CNS) was 17.6 µM. The TGI (SNB-75 CNS) was > 50 µM, the GI50 (CAKI-1 renal) was 8.64 µM and the TGI (CAKI-1 renal) was 17.8 µM. For the same molecule, the GI50 (SK-MEL-2 melanoma) was 16.7 µM, the TGI (SK-MEL-2 melanoma) was > 50 µM and the GI50 (T-47D breast) was 23.1 µM. For the same molecule, the TGI (T-47D breast) was > 50 µM, the GI50 (NCI-H226 lung) was 21.7 µM and the TGI (NCI-H226 lung) was > 50 µM. For the same molecule, the GI50 (M14 melanoma) was 20.7 µM, the TGI (M14 melanoma) was > 50 µM and the GI50 (SNB-19 CNS) was 27.8 µM. The TGI (SNB-19 CNS) was > 50 µM, the GI50 (ACHN renal) was 14.6 µM and the TGI (ACHN renal) was > 50 µM. It also gave a GI50 (SN12C renal) of 10.3 µM, a TGI (SN12C renal) of 23 µM and a GI50 (SR leukemia) of 23.3 µM. For the same molecule, the TGI (SR leukemia) was > 50 µM, the GI50 (SK-MEL-5 melanoma) was 11.8 µM and the TGI (SK-MEL-5 melanoma) was 28 µM. The GI50 (TK-10 renal) was 18.8 µM, the TGI (TK-10 renal) was > 50 µM and the GI50 (A498 renal) was 13.1 µM. For the same molecule, the TGI (A498 renal) was 44.5 µM, the GI50 (NCI-H522 lung) was 12.1 µM and the TGI (NCI-H522 lung) was > 50 µM. The GI50 (MCF7 breast) was 8.94 µM, the TGI (MCF7 breast) was 22.1 µM and the GI50 (MALME-3M melanoma) was 14.3 µM. The TGI (MALME-3M melanoma) was 42.6 µM, the GI50 (LOX IMVI melanoma) was 8.98 µM and the TGI (LOX IMVI melanoma) was 19.3 µM. The GI50 (HCT-116 colon) was 12.3 µM, the TGI (HCT-116 colon) was 38.1 µM and the GI50 (MDA-MB-435) was 16.8 µM. For the same molecule, the TGI (MDA-MB-435) was > 50 µM, the GI50 (HCC-2998 colon) was 15.1 µM and the TGI (HCC-2998 colon) was 45.4 µM. For the same molecule, the GI50 (K-562 leukemia) was 30.8 µM, the TGI (K-562 leukemia) was > 50 µM and the GI50 (MOLT-4 leukemia) was 17.6 µM. The TGI (MOLT-4 leukemia) was > 50 µM, the GI50 (BT-549 breast) was 12.9 µM and the TGI (BT-549 breast) was 45.4 µM. For the same molecule, the GI50 (HOP-62 NSCLC) was 31.2 µM, the TGI (HOP-62 NSCLC) was > 50 µM and the GI50 (U251 CNS) was 14.9 µM. For the same molecule, the TGI (U251 CNS) was > 50 µM, the GI50 (SK-MEL-28 melanoma) was 16.6 µM and the TGI (SK-MEL-28 melanoma) was > 50 µM. For the same molecule, the GI50 (SF-268 CNS) was 18.2 µM, the TGI (SF-268 CNS) was > 50 µM and the GI50 (SW-620 colon) was 16.8 µM. For the same molecule, the TGI (SW-620 colon) was 49.7 µM, the GI50 (HCT-15 colon) was 12.4 µM and the TGI (HCT-15 colon) was > 50 µM. The GI50 (UACC-62 melanoma) was 16.8 µM, the TGI (UACC-62 melanoma) was > 50 µM and the GI50 (NCI/ADR-RES ovarian) was 18.1 µM. The TGI (NCI/ADR-RES ovarian) was > 50 µM, the GI50 (DU-145 prostate) was 19.3 µM and the TGI (DU-145 prostate) was > 50 µM. For the same molecule, the GI50 (KM12 colon) was 18.7 µM, the TGI (KM12 colon) was > 50 µM and the GI50 (OVCAR-8 ovarian) was 37.7 µM. The TGI (OVCAR-8 ovarian) was > 50 µM, the GI50 (HL-60(TB) leukemia) was 4.2 µM and the TGI (HL-60(TB) leukemia) was > 50 µM. For the same molecule, the GI50 (MDA-MB-231 breast) was 12 µM, the TGI (MDA-MB-231 breast) was > 50 µM and the GI50 (IGROV1 ovarian) was 17.7 µM. The TGI (IGROV1 ovarian) was > 50 µM, the GI50 (HT29 colon) was 13.2 µM and the TGI (HT29 colon) was 31.8 µM. The GI50 (EKVX NSCLC) was 18.6 µM, the TGI (EKVX NSCLC) was > 50 µM and the GI50 (UACC-257 melanoma) was 23.3 µM. The TGI (UACC-257 melanoma) was > 50 µM, the GI50 (PC-3 prostate) was 13.3 µM and the TGI (PC-3 prostate) was > 50 µM.

In the case of `COC(=O)Cc1ccc(Oc2nc3ccccc3nc2-c2cccs2)cc1`, the TGI (OVCAR-3 ovarian) is reported as > 100 µM, the TGI (NCI-H460 lung) is reported as > 100 µM and the TGI (SF-295 CNS) is reported as > 100 µM. The TGI (786-0 renal) was > 100 µM, the TGI (NCI-H23 lung) was > 100 µM and the TGI (CCRF-CEM leukemia) was > 100 µM. The TGI (SK-OV-3 ovarian) was 92.2 µM, the TGI (SF-539 CNS) was > 100 µM and the TGI (UO-31 renal) was > 100 µM. The TGI (OVCAR-4 ovarian) was > 100 µM, the TGI (HOP-92 NSCLC) was 63.3 µM and the TGI (COLO 205 colon) was > 100 µM. The TGI (HS 578T breast) was > 100 µM, the TGI (OVCAR-5 ovarian) was > 100 µM and the TGI (SNB-75 CNS) was 24.7 µM. For the same molecule, the TGI (CAKI-1 renal) was > 100 µM, the TGI (SK-MEL-2 melanoma) was > 100 µM and the TGI (T-47D breast) was > 100 µM. The TGI (NCI-H226 lung) was 99.8 µM, the TGI (M14 melanoma) was > 100 µM and the TGI (SNB-19 CNS) was > 100 µM. The TGI (ACHN renal) was > 100 µM, the TGI (SN12C renal) was > 100 µM and the TGI (SR leukemia) was > 100 µM. The TGI (SK-MEL-5 melanoma) was > 100 µM, the TGI (TK-10 renal) was > 100 µM and the TGI (RXF 393 renal) was 48.5 µM. The TGI (NCI-H522 lung) was > 100 µM, the TGI (MCF7 breast) was > 100 µM and the TGI (MALME-3M melanoma) was > 100 µM. The TGI (LOX IMVI melanoma) was > 100 µM, the TGI (HCT-116 colon) was > 100 µM and the TGI (MDA-MB-435) was > 100 µM. For the same molecule, the TGI (HCC-2998 colon) was > 100 µM, the TGI (K-562 leukemia) was > 100 µM and the TGI (MOLT-4 leukemia) was > 100 µM. The TGI (BT-549 breast) was > 100 µM, the TGI (HOP-62 NSCLC) was > 100 µM and the TGI (U251 CNS) was > 100 µM. The TGI (SK-MEL-28 melanoma) was > 100 µM, the TGI (SF-268 CNS) was > 100 µM and the TGI (SW-620 colon) was > 100 µM. For the same molecule, the TGI (HCT-15 colon) was > 100 µM, the TGI (UACC-62 melanoma) was > 100 µM and the TGI (RPMI-8226 leukemia) was > 100 µM. The TGI (NCI/ADR-RES ovarian) was > 100 µM, the TGI (DU-145 prostate) was > 100 µM and the TGI (A549 NSCLC) was > 100 µM. The TGI (KM12 colon) was > 100 µM, the TGI (OVCAR-8 ovarian) was > 100 µM and the TGI (HL-60(TB) leukemia) was > 100 µM. For the same molecule, the TGI (MDA-MB-231 breast) was > 100 µM, the TGI (IGROV1 ovarian) was > 100 µM and the TGI (HT29 colon) was > 100 µM. The TGI (EKVX NSCLC) was > 100 µM, the TGI (UACC-257 melanoma) was > 100 µM and the TGI (PC-3 prostate) was > 100 µM.
